{"source": "patent US11766430B2", "about": "“Methods of using a phenoxypropylamine compound to treat pain” (Minerva Neurosciences, Inc., priority 2018, dated 2023)", "system": "carrageenan-induced mechanical hyperalgesia in rats", "assay": "Carrageenan-induced mechanical hyperalgesia, paw pressure test, MIN-117 1-10 mg/kg (Example 4)", "type": "in vivo, male Sprague-Dawley rats", "conditions": "Carrageenan 2%; for Nociceptive threshold, control paw (mean ± s.e.m.): T0 (3 h after carrageenan, before dosing); for paw withdrawal threshold, control paw, Mean: n = 10", "description": "In this model, inflammation is induced by intraplantar injection of carrageenan (2%) into the right hindpaw of the rat. Three hours later, reaction thresholds are measured using the paw pressure test. Pressure is gradually applied to both hind paws (inflamed and control) of the rat, and reaction thresholds are determined as the pressure (g) required to elicit paw withdrawal or vocalization. Morphine (3 mg/kg, s.c.), used as positive control.\nThe experiments in this study used fifty (50) male Sprague-Dawley rats (SPF status, Janvier, France), each weighing 183-244 g during the experimental phase. The rats were housed in a temperature (20-24° C.) and relative humidity (45%-65%) controlled room and acclimated to an artificial day/night cycle of 12 hours light (6.30 a.m. to 6.30 p.m.)/12 hours darkness. Rats had free access to sterilized tap water and were fed ad libitum with pelleted complete diet (reference A04, S.A.F.E.). Animals were housed 4 per cage (cages Type E) and were acclimated for a period of at least 5 days before any testing. Each rat was identified by tail markings. Based on the SPF status of the animal facilities, there is no reason to expect that contaminants were present in the food, water or bedding, at levels capable of interfering with the results of the tests.\nStatic mechanical hyperalgesia was assessed using the Paw Pressure test or Randall & Selitto test (Randall, L. O. and Selitto, J. J., A method for measurement of analgesic activity on inflamed tissue, Arch Int Pharmacodyn, 1957(111): 409-419). This test requires the application of an increasing pressure on the hind paws between a flat surface and a blunt pointer. This test is usually used with animals with one hind paw inflamed by an injection or injured by ligation, and one normal hind paw, to evaluate drugs for analgesic action. The apparatus exerts a steadily increasing force and reaction threshold is determined as the pressure (g) required to elicit paw withdrawal and/or vocalization. In the experiment, animals were gently handled by the experimenter and static mechanical hyperalgesia was assessed. Each reaction threshold measurement was done for both hind paws.\nFive (5) experimental groups of 10 rats each were used. Each group was first injected with 100 μL of a 2% carrageenan suspension was injected into the plantar aspect of the right hindpaw. Three hours after carrageenan injection, nociceptive reaction thresholds (vocalization or paw withdrawal) were measured in order to select animals meeting the inclusion criteria: 20 g<paw withdrawal threshold<240 g (baseline). The 5 groups were then administered the following: • Group 1: vehicle (0.5% HPMC), i.p., solution (negative control); • Group 2: MIN-117 (1 mg/kg, i.p.) in 0.5% HPMC, suspension; • Group 3: MIN-117 (3 mg/kg, i.p.) in 0.5% HPMC, suspension; • Group 4: MIN-117 (10 mg/kg, i.p.) in 0.5% HPMC, suspension; and • Group 5: morphine (3 mg/kg, s.c.) in 0.9% NaCl, solution (positive control).\nThirty minutes after morphine injection, the antihyperalgesic effect of morphine was evaluated using the paw pressure test. For vehicle and MIN-117 administration, the antihyperalgesic effect was evaluated after 120 min. using the paw pressure test.\nVehicle and MIN-117 were intraperitoneally administered at 10 mL/kg. Morphine was subcutaneously administered at 5 mL/kg. Dosing and testing were performed in a random order by a blinded experimenter except for the morphine-treated group. Doses were expressed in terms of free active substance.\nResults were expressed as: • The paw withdrawal threshold (mean±s.e.m.) in grams of contact pressure for each group, calculated from individual paw withdrawal thresholds • The percentage of variation of the paw withdrawal threshold calculated from the mean value of the vehicle-treated group • The percentage of activity of activity of the compound on carrageenan-induced mechanical hyperalgesia, calculated as follows: […]", "key": {"[1]": {"conditions": "1 mg/kg i.p., T0 (before dosing)"}, "[2]": {"conditions": "3 mg/kg i.p., T0 (before dosing)"}, "[3]": {"conditions": "10 mg/kg i.p., T0 (before dosing)"}, "[4]": {"conditions": "MIN-117 1 mg/kg i.p. group, Baseline (before dosing)"}, "[5]": {"conditions": "MIN-117 1 mg/kg i.p., 120 min after treatment, hydrochloride, 1 mg/kg"}, "[6]": {"conditions": "MIN-117 3 mg/kg i.p. group, Baseline (before dosing)"}, "[7]": {"conditions": "MIN-117 3 mg/kg i.p., 120 min after treatment, hydrochloride, 3 mg/kg"}, "[8]": {"conditions": "MIN-117 10 mg/kg i.p. group, Baseline (before dosing)"}, "[9]": {"conditions": "MIN-117 10 mg/kg i.p., 120 min after treatment, hydrochloride, 10 mg/kg"}}, "note": "Values joined by “and” are separate entries in the source; they are usually repeats but may differ in a detail not shown here. Identical values can stand only once."}
{"smiles": "Cc1nnc(-c2cc3c(OC[C@@H](O)CN4CCC(c5ccc(Cl)c(Cl)c5)CC4)cccc3o2)o1.Cl", "note": "[MIN-117, (2S)-1-(4-(3,4-dichlorophenyl)piperidin-1-yl)-3-((2-(5-methyl-1,3,4-oxadiazol-2-yl)benzofuran-4-yl)oxy)propan-2-ol hydrochloride]", "values": [{"measurement": "Effect on nociceptive threshold vs vehicle-treated group (in words)", "setting": "1 mg/kg i.p., 120 min. after treatment", "result": "did not induce any significant increase"}, {"measurement": "Nociceptive threshold, control paw (mean ± s.e.m.)", "setting": "1 mg/kg i.p.", "result": "402 ± 19.9", "unit": "g"}, {"measurement": "% variation vs control paw, injured paw", "setting": "[1]", "result": "−50", "unit": "%"}, {"measurement": "% variation vs vehicle-treated group, injured paw", "setting": "[1]", "result": 1, "unit": "%"}, {"measurement": "Nociceptive threshold, injured paw (mean ± s.e.m.)", "setting": "[1]", "result": "202 ± 8.7", "unit": "g"}, {"measurement": "% variation vs control paw, injured paw", "setting": "1 mg/kg i.p., T0 + 120 min", "result": "−39", "unit": "%"}, {"measurement": "% variation vs pre-drug threshold, injured paw", "setting": "1 mg/kg i.p., T0 + 120 min", "result": 14, "unit": "%"}, {"measurement": "% variation vs vehicle-treated group, injured paw", "setting": "1 mg/kg i.p., T0 + 120 min", "result": 13, "unit": "%"}, {"measurement": "Nociceptive threshold, injured paw (mean ± s.e.m.)", "setting": "1 mg/kg i.p., T0 + 120 min", "result": "230 ± 9.5", "unit": "g"}, {"measurement": "Effect on nociceptive threshold vs vehicle-treated group (in words)", "setting": "3 mg/kg i.p., 120 min. later", "result": "significant increase"}, {"measurement": "Nociceptive threshold, control paw (mean ± s.e.m.)", "setting": "3 mg/kg i.p.", "result": "392 ± 18.4", "unit": "g"}, {"measurement": "% variation vs control paw, injured paw", "setting": "[2]", "result": "−47", "unit": "%"}, {"measurement": "% variation vs vehicle-treated group, injured paw", "setting": "[2]", "result": 4, "unit": "%"}, {"measurement": "Nociceptive threshold, injured paw (mean ± s.e.m.)", "setting": "[2]", "result": "208 ± 7.4", "unit": "g"}, {"measurement": "% variation vs control paw, injured paw", "setting": "3 mg/kg i.p., T0 + 120 min", "result": "−23", "unit": "%"}, {"measurement": "% variation vs pre-drug threshold, injured paw", "setting": "3 mg/kg i.p., T0 + 120 min", "result": 42, "unit": "%"}, {"measurement": "% variation vs vehicle-treated group, injured paw", "setting": "3 mg/kg i.p., T0 + 120 min", "result": 45, "unit": "%"}, {"measurement": "Nociceptive threshold, injured paw (mean ± s.e.m.)", "setting": "3 mg/kg i.p., T0 + 120 min, hydrochloride, 3 mg/kg", "result": "296 ± 20.8", "unit": "g"}, {"measurement": "Effect on nociceptive threshold vs vehicle-treated group (in words)", "setting": "10 mg/kg i.p., 120 min. later", "result": "significant increase"}, {"measurement": "Nociceptive threshold, control paw (mean ± s.e.m.)", "setting": "10 mg/kg i.p.", "result": "384 ± 10.2", "unit": "g"}, {"measurement": "% variation vs control paw, injured paw", "setting": "[3]", "result": "−47", "unit": "%"}, {"measurement": "% variation vs vehicle-treated group, injured paw", "setting": "[3]", "result": 2, "unit": "%"}, {"measurement": "Nociceptive threshold, injured paw (mean ± s.e.m.)", "setting": "[3]", "result": "204 ± 6.5", "unit": "g"}, {"measurement": "% variation vs control paw, injured paw", "setting": "10 mg/kg i.p., T0 + 120 min", "result": "−27", "unit": "%"}, {"measurement": "% variation vs pre-drug threshold, injured paw", "setting": "10 mg/kg i.p., T0 + 120 min", "result": 53, "unit": "%"}, {"measurement": "% variation vs vehicle-treated group, injured paw", "setting": "10 mg/kg i.p., T0 + 120 min", "result": 53, "unit": "%"}, {"measurement": "Nociceptive threshold, injured paw (mean ± s.e.m.)", "setting": "10 mg/kg i.p., T0 + 120 min, hydrochloride, 10 mg/kg", "result": "312 ± 22.7", "unit": "g"}, {"measurement": "% variation vs control paw, injured paw", "setting": "[4]", "result": "−50", "unit": "%"}, {"measurement": "% variation vs vehicle treated group, injured paw", "setting": "[4]", "result": 1, "unit": "%"}, {"measurement": "paw withdrawal threshold, control paw, Mean", "setting": "MIN-117 1 mg/kg i.p. group, Baseline (before dosing, 3 h after carrageenan)", "result": 402, "unit": "g"}, {"measurement": "% activity on carrageenan-induced mechanical hyperalgesia, injured paw", "setting": "MIN-117 1 mg/kg i.p., 120 min", "result": 15, "unit": "%"}, {"measurement": "% variation vs control paw, injured paw", "setting": "MIN-117 1 mg/kg i.p., 120 min", "result": "−39", "unit": "%"}, {"measurement": "% variation vs pre-drug threshold, injured paw", "setting": "MIN-117 1 mg/kg i.p., 120 min", "result": 14, "unit": "%"}, {"measurement": "% variation vs vehicle treated group, injured paw", "setting": "MIN-117 1 mg/kg i.p., 120 min", "result": 13, "unit": "%"}, {"measurement": "paw withdrawal threshold, control paw, individual rats", "setting": "[5]", "result": "400 g and 440 g and 340 g and 480 g and 360 g (4×) and 380 g and 320 g"}, {"measurement": "paw withdrawal threshold, injured paw, individual rats", "setting": "[5]", "result": "260 g (4×) and 220 g (2×) and 240 g and 200 g (2×) and 180 g"}, {"measurement": "paw withdrawal threshold, control paw, Mean", "setting": "MIN-117 1 mg/kg i.p., 120 min after treatment", "result": 380, "unit": "g"}, {"measurement": "% variation vs control paw, injured paw", "setting": "[6]", "result": "−47", "unit": "%"}, {"measurement": "% variation vs vehicle treated group, injured paw", "setting": "[6]", "result": 4, "unit": "%"}, {"measurement": "paw withdrawal threshold, control paw, Mean", "setting": "MIN-117 3 mg/kg i.p. group, Baseline (before dosing, 3 h after carrageenan)", "result": 392, "unit": "g"}, {"measurement": "% activity on carrageenan-induced mechanical hyperalgesia, injured paw", "setting": "MIN-117 3 mg/kg i.p., 120 min", "result": 55, "unit": "%"}, {"measurement": "% variation vs control paw, injured paw", "setting": "MIN-117 3 mg/kg i.p., 120 min", "result": "−23", "unit": "%"}, {"measurement": "% variation vs pre-drug threshold, injured paw", "setting": "MIN-117 3 mg/kg i.p., 120 min", "result": 42, "unit": "%"}, {"measurement": "% variation vs vehicle treated group, injured paw", "setting": "MIN-117 3 mg/kg i.p., 120 min", "result": 45, "unit": "%"}, {"measurement": "paw withdrawal threshold, control paw, individual rats", "setting": "[7]", "result": "380 g and 360 g (5×) and 440 g and 500 g and 320 g and 420 g"}, {"measurement": "paw withdrawal threshold, injured paw, individual rats", "setting": "[7]", "result": "360 g and 220 g and 420 g and 280 g (3×) and 340 g and 320 g and 260 g and 200 g"}, {"measurement": "paw withdrawal threshold, control paw, Mean", "setting": "MIN-117 3 mg/kg i.p., 120 min after treatment", "result": 368, "unit": "g"}, {"measurement": "% variation vs control paw, injured paw", "setting": "[8]", "result": "−47", "unit": "%"}, {"measurement": "% variation vs vehicle treated group, injured paw", "setting": "[8]", "result": 2, "unit": "%"}, {"measurement": "paw withdrawal threshold, control paw, Mean", "setting": "MIN-117 10 mg/kg i.p. group, Baseline (before dosing, 3 h after carrageenan)", "result": 384, "unit": "g"}, {"measurement": "% activity on carrageenan-induced mechanical hyperalgesia, injured paw", "setting": "MIN-117 10 mg/kg i.p., 120 min", "result": 64, "unit": "%"}, {"measurement": "% variation vs control paw, injured paw", "setting": "MIN-117 10 mg/kg i.p., 120 min", "result": "−27", "unit": "%"}, {"measurement": "% variation vs pre-drug threshold, injured paw", "setting": "MIN-117 10 mg/kg i.p., 120 min", "result": 53, "unit": "%"}, {"measurement": "% variation vs vehicle treated group, injured paw", "setting": "MIN-117 10 mg/kg i.p., 120 min", "result": 53, "unit": "%"}, {"measurement": "paw withdrawal threshold, control paw, individual rats", "setting": "[9]", "result": "440 g (3×) and 480 g and 520 g and 400 g and 340 g and 320 g and 360 g and 540 g"}, {"measurement": "paw withdrawal threshold, injured paw, individual rats", "setting": "[9]", "result": "320 g (2×) and 280 g (2×) and 340 g and 360 g and 480 g and 260 g and 240 g (2×)"}, {"measurement": "paw withdrawal threshold, control paw, Mean", "setting": "MIN-117 10 mg/kg i.p., 120 min after treatment", "result": 428, "unit": "g"}]}
